Test results: ChEMBL document CHEMBL4706499, “PTG-0861: A novel HDAC6-selective inhibitor as a therapeutic strategy in acute myeloid leukaemia” (Eur J Med Chem, 2020)
Activity calls are given as the source filed them. The calls are words filed in the database; no cut-off is given here.

Columns and labels:
[1] = tested on: MV4-11; assay: Cytotoxicity against human MV4-11 cells measured after 72 hrs by spectrophotometer method; format: functional, cell-based; settings: MV4-11, 72 h
[2] = Cytotoxicity against human MRC9 cells measured after 72 hrs by spectrophotometer method; format: cell-based; settings: MRC9, 72 h
[3] = target: Histone deacetylase 5 (Homo sapiens, UniProt Q9UQL6); assay: Inhibition of recombinant full length human HDAC5 expressed in SF9 baculovirus using FAM- labelled acetylated peptide as substrate measured by Electrophoretic mobility shift assay
Histone deacetylase 5, sequence (Q9UQL6 whole entry): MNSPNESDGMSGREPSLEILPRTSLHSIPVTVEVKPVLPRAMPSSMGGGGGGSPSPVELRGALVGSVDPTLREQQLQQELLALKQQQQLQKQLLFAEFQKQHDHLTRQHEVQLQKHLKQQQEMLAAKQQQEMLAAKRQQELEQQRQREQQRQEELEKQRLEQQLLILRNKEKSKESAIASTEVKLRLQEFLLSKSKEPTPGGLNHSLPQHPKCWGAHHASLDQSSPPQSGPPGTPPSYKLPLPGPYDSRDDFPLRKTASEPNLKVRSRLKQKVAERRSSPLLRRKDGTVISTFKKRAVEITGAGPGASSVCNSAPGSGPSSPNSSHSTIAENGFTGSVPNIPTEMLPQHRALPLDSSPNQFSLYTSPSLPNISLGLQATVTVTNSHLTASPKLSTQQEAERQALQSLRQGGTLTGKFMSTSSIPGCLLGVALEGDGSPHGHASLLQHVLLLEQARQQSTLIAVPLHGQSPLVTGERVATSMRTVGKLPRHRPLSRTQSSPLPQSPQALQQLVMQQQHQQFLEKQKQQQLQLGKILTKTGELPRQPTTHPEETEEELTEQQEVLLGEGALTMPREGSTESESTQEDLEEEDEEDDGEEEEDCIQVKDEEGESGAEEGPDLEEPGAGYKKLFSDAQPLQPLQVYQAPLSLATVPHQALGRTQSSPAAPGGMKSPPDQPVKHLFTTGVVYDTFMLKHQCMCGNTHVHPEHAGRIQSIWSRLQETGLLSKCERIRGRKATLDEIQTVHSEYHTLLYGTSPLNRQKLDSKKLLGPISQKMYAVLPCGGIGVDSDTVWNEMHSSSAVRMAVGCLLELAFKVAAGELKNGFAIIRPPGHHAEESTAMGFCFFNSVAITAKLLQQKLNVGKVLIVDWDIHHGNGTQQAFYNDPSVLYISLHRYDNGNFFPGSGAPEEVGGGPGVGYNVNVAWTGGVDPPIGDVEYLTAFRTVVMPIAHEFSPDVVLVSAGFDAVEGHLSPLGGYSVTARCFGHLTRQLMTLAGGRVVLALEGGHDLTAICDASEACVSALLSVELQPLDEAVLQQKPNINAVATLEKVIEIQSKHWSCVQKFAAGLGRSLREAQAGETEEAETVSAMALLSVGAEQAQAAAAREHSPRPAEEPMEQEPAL

[4] = target: T1, Polyamine deacetylase HDAC10 (Homo sapiens, UniProt Q969S8); assay: Inhibition of recombinant full length human HDAC10 expressed in SF9 baculovirus using FAM- labelled acetylated peptide as substrate measured by Electrophoretic mobility shift assay
T1 sequence (Q969S8 whole entry): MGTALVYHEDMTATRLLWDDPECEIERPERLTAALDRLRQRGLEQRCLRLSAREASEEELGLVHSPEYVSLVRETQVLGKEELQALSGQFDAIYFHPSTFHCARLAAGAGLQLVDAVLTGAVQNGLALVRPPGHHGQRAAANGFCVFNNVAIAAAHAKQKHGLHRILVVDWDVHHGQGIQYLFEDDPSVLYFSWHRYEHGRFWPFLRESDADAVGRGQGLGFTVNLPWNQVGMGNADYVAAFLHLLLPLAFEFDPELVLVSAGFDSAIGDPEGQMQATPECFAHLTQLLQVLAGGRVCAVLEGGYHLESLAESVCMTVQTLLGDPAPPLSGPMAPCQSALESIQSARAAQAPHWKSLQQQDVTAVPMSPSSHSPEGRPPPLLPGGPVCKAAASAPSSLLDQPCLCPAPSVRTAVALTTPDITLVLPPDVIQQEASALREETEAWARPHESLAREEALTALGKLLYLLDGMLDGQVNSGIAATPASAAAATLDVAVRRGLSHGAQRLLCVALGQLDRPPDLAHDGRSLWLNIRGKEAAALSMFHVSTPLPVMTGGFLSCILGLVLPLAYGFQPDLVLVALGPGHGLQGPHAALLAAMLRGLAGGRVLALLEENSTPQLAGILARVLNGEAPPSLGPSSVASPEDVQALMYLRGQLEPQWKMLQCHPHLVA

[5] = target: T2, Histone deacetylase 6 (Danio rerio, UniProt F8W4B7); assay: Inhibition of N-terminal 6 His-SUMO tagged Zebrafish HDAC6 CD2 domain expressed in Escherichia coli BL21(DE3) RILP pretreated for 10 mins before FITC-M344 addition and measured after 10 mins by fluorescence polarization competition assay
T2 sequence (F8W4B7 whole entry): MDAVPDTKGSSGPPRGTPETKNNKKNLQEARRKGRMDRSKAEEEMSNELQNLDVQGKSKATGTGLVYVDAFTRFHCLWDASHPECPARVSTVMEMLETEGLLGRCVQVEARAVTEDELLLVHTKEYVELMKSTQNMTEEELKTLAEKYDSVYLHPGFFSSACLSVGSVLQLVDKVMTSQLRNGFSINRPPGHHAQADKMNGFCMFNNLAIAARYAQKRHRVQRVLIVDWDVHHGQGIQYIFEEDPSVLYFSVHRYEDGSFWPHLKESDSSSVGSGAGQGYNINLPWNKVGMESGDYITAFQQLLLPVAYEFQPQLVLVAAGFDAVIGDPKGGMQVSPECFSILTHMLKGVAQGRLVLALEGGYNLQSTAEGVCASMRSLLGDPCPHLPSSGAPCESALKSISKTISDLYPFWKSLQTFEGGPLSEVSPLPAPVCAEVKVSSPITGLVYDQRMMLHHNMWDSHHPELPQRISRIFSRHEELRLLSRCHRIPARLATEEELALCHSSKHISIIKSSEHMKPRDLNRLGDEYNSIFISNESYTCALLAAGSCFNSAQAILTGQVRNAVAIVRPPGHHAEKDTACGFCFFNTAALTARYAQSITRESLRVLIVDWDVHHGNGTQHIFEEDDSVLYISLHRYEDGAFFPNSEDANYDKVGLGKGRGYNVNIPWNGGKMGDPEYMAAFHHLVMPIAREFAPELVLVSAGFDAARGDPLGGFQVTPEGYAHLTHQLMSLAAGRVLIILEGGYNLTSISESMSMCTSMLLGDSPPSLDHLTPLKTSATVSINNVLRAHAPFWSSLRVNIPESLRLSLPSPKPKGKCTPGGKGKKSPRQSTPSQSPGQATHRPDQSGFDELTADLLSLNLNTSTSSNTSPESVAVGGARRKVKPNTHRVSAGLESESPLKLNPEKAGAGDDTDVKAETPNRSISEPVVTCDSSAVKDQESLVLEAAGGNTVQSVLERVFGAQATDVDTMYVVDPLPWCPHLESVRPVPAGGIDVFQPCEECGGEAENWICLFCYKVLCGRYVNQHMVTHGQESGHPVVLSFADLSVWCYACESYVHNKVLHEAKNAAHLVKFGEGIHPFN

[6] = tested on: MV4-11; assay: Induction of apoptosis in human MV4-11 cells assessed as late apoptotic cells at 2 microM measured after 18 hrs by Annexin V/Propidium iodide stain based Flow cytometry assay (reference value: 4.91%); format: functional
[7] = tested on: MV4-11; assay: Induction of apoptosis in human MV4-11 cells assessed as early apoptotic cells at 2 microM measured after 18 hrs by Annexin V/Propidium iodide stain based Flow cytometry assay (reference value: 1.7%); format: functional
[8] = tested on: MV4-11; assay: Induction of apoptosis in human MV4-11 cells assessed as late apoptotic cells at 1 microM measured after 18 hrs by Annexin V/Propidium iodide stain based Flow cytometry assay (reference value: 4.91%); format: functional
[9] = tested on: MV4-11; assay: Induction of apoptosis in human MV4-11 cells assessed as early apoptotic cells at 0.5 microM measured after 18 hrs by Annexin V/Propidium iodide stain based Flow cytometry assay (reference value: 1.7%); format: functional
[10] = Glutathione reactivity at pH 7.4 assessed as compound remaining measured after 30 mins by LC-MS/MS method; format: physicochemical; settings: glutathione solution, read-out: Stabilty
[11] = Half life in CD1 mouse at 20 mg/kg, ip measured after 24 hrs by LC/MS/MS method; format: ADME, organism-based; settings: in vivo
[12] = Toxicity in CD-1 mouse assessed as visible signs of toxicity at 20 mg/kg, po measured after 5 days; format: organism-based; settings: in vivo, 120 h, time 5 day
[13] = target: Class 1 histone deacetylase (Homo sapiens) (UniProt Q13547+O15379+Q92769+Q9BY41); assay: Inhibition of HDAC class 1 in human HeLa cells assessed as acetylated H3 histone at 0.1 uM measured after 6 hrs by Immunofluorescent assay
Class 1 histone deacetylase (Homo sapiens), sequence (O15379 whole entry, looked up): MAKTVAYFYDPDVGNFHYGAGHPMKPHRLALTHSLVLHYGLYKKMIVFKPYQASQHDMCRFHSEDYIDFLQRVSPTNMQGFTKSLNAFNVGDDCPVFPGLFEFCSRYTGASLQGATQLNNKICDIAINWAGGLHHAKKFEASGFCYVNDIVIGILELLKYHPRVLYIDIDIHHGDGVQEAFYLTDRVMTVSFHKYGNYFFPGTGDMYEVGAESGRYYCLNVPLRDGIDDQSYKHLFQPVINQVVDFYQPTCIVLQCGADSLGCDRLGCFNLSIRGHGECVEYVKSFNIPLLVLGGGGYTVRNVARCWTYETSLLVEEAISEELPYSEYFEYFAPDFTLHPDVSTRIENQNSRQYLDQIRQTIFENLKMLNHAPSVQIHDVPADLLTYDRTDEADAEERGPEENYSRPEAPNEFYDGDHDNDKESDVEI
Class 1 histone deacetylase (Homo sapiens), sequence (Q13547 whole entry, looked up): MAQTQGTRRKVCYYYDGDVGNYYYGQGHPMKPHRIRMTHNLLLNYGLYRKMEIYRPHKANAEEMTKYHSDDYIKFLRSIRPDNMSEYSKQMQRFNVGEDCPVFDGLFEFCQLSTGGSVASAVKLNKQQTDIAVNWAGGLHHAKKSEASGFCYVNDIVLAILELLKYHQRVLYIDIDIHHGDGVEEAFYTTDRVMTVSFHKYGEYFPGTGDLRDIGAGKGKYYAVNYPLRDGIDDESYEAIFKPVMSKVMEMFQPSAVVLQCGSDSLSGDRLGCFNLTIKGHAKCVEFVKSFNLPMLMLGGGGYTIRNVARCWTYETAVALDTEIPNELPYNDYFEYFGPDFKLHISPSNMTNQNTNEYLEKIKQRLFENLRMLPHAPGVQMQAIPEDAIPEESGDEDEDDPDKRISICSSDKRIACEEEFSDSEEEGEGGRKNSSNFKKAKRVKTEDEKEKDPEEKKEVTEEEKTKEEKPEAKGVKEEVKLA
Class 1 histone deacetylase (Homo sapiens), sequence (Q92769 whole entry, looked up): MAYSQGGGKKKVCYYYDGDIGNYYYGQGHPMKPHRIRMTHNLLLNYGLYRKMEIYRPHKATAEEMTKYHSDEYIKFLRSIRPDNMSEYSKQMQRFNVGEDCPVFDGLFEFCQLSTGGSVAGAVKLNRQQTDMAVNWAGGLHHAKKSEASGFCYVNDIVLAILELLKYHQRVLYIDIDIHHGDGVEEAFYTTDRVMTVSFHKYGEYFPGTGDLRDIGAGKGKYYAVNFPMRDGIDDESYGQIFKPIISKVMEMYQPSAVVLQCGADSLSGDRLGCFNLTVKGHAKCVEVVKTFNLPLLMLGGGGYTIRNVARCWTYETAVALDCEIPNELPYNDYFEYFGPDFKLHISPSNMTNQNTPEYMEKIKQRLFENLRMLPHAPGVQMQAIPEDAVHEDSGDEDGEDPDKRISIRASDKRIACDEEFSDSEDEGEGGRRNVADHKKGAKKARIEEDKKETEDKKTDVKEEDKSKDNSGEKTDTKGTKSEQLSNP
Class 1 histone deacetylase (Homo sapiens), sequence (Q9BY41 whole entry, looked up): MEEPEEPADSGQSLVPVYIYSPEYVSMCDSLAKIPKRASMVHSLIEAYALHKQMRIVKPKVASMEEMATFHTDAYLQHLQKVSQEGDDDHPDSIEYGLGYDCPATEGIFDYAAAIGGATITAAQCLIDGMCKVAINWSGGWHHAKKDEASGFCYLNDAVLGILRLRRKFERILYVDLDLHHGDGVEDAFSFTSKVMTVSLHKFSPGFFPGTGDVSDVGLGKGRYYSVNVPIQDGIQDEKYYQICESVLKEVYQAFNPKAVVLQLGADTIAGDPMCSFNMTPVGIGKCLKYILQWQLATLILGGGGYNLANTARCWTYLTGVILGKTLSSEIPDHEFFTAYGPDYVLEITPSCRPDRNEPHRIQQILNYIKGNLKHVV

SMILES: O=C(NO)c1ccc(CNC(=O)c2c(F)c(F)c(F)c(F)c2F)cc1
- IC50 [1]: 1.85 µM
- IC50 [2]: > 50 µM
- IC50 [3]: > 1 µM
- IC50 [4]: > 1 µM
- IC50 [5]: 0.074 µM
- Activity [6]: 15.93%
- Activity [7]: 7.73%
- Activity [8]: 11.15%
- Activity [9]: 2.87%
- remaining at 0.5 h [10]: 96.4%
- half-life [11]: 15 min
- Activity [12]: Non-Toxic
- inhibition [13]: inactive
